Assay type in all cases: functional
In one test the test system is LOX IMVI. In words: Cytotoxicity against Homo sapiens (human) LOXIMVI cells after 48 hr by SRB assay. A general note: In SRB staining, fixed cells bind dye roughly in proportion to their protein.
Another test has as its system Hs-578T. In words: Cytotoxicity against Homo sapiens (human) Hs578T cells after 48 hr by SRB assay.
In a further test the test system is PC-3. In words: Cytotoxicity against Homo sapiens (human) PC3 cells after 48 hr by SRB assay. The note with it: PC-3, 48 h.
The subject of the next test is TK-10. In words: Cytotoxicity against Homo sapiens (human) TK10 cells after 48 hr by SRB assay. The conditions noted are these: TK-10, 48 h.
In another test the test system is SN12C. In words: Cytotoxicity against Homo sapiens (human) SN12C cells after 48 hr by SRB assay.
Another test concerns ACHN. In words: Cytotoxicity against Homo sapiens (human) ACHN cells after 48 hr by SRB assay.
Test [1] is described as follows: Cytotoxicity against Homo sapiens (human) NCI-ADR-RES cells after 48 hr by SRB assay.
Another test deals with OVCAR-3. In words: Cytotoxicity against Homo sapiens (human) OVCAR3 cells after 48 hr by SRB assay. The note with it: OVCAR-3, 48 h.
Another test deals with SK-MEL-5. In words: Cytotoxicity against Homo sapiens (human) SK-MEL-5 cells after 48 hr by SRB assay. The note with it: SK-MEL-5, 48 h.
Another test relates to SK-MEL-2. In words: Cytotoxicity against Homo sapiens (human) SK-MEL-2 cells after 48 hr by SRB assay. The note with it: SK-MEL-2, 48 h.
The nature of test [2]: Cytotoxicity against Homo sapiens (human) breast cancer cells after 48 hr by SRB assay. The note with it: Cancer cell lines.
A short description of test [3]: Cytotoxicity against Homo sapiens (human) CNS cancer cells after 48 hr by SRB assay. The conditions noted are these: Cancer cell lines.
Another test has as its system BT-549. In words: Cytotoxicity against Homo sapiens (human) BT549 cells after 48 hr by SRB assay. The note with it: BT-549, 48 h.
The subject of the next test is SNB-19. In words: Cytotoxicity against Homo sapiens (human) SNB19 cells after 48 hr by SRB assay. The note with it: SNB-19, 48 h.
In a further test the test system is SF-539. In words: Cytotoxicity against Homo sapiens (human) SF539 cells after 48 hr by SRB assay. The conditions noted are these: SF-539, 48 h.
A further test has as its system SF-268. In words: Cytotoxicity against Homo sapiens (human) SF268 cells after 48 hr by SRB assay. The conditions noted are these: SF-268, 48 h.
The subject of another test is HCT-116. In words: Cytotoxicity against Homo sapiens (human) HCT116 cells after 48 hr by SRB assay. The note with it: HCT-116, 48 h.
A short description of test [4]: Cytotoxicity against Homo sapiens (human) NCI-H322 cells after 48 hr by SRB assay. The conditions noted are these: NCI-H322, 48 h.
The test system of another test is NCI-H226. In words: Cytotoxicity against Homo sapiens (human) NCI-H226 cells after 48 hr by SRB assay. The note with it: NCI-H226, 48 h.
The test system of a further test is RPMI-8226. In words: Cytotoxicity against Homo sapiens (human) RPMI8226 cells after 48 hr by SRB assay. The conditions noted are these: RPMI-8226, 48 h.
The subject of a further test is K562. In words: Cytotoxicity against Homo sapiens (human) K562 cells after 48 hr by SRB assay. The note with it: K562, 48 h.

Consider 4 compounds from ChEMBL document CHEMBL3046832, “Synthesis of some sulfonamides, disubstituted sulfonylureas or thioureas and some structurally related variants. A class of promising antitumor agents” (2007).

With `NS(=O)(=O)c1ccc(-n2nc3c(c2-c2cccs2)Cc2ccccc2-3)cc1`, the GI50 (usually the concentration that inhibits growth by half) in the test on LOX IMVI was determined as 6.58 µM; with Hs-578T, 16.1 µM; in the test with PC-3, 20.6 µM; in the test on TK-10, 12.2 µM; in the test on SN12C, 12.2 µM; in the test with ACHN, 11.7 µM. In addition, the GI50 is 12.4 µM in [1]; 14.4 µM in the test on OVCAR-3; 10.5 µM in the test on SK-MEL-5; 27.6 µM in the test with SK-MEL-2; 26.1 µM in [2]; 31.8 µM in test [3]. For the same compound, the concentration for 50% growth inhibition (GI50) with BT-549 was 12.4 µM; in the test on SNB-19, 18.1 µM; in the test on SF-539 it was 21.1 µM; in the test on SF-268, over 100 µM; with HCT-116, 7.67 µM; in test [4], 11.9 µM. For the same compound, the GI50 in the test with NCI-H226 amounted to 4.9 µM; in the test on RPMI-8226, 6.68 µM; in the test on K562 it was 0.86 µM. The TGI (commonly the concentration at which net growth stops) in test [2] was 34.7 µM; in test [3] it was 42 µM.

For `O=C(Nc1ccccc1)NS(=O)(=O)c1ccc(N2N=C3c4ccccc4CC3C2c2cccnc2)cc1` (configuration not stated), the GI50 with LOX IMVI was determined as 15.4 µM; in the test on Hs-578T, 40.7 µM; in the test on PC-3, 36.2 µM; in the test on TK-10 it was 11.7 µM; with SN12C, 30.4 µM; in the test with ACHN, 23.6 µM. Further, the GI50 in test [1] was found to be 64.4 µM; in the test on OVCAR-3 it was 21.6 µM; in the test on SK-MEL-5, 23.6 µM; with SK-MEL-2 it was 35.6 µM; in test [2], 42.4 µM; in test [3], 54.8 µM. The GI50 came out at 30.6 µM in the test on BT-549; 83.9 µM in the test on SNB-19; 30.6 µM in the test on SF-539; 62.1 µM in the test with SF-268; 15.3 µM with HCT-116; 17.3 µM in [4]. The concentration for 50% growth inhibition (GI50) is 23.7 µM with NCI-H226, 27.1 µM in the test on RPMI-8226 and 26.6 µM in the test with K562. The TGI stood at 87.8 µM in test [2] and 87.6 µM in test [3].

With `O=C(NC1CCCCC1)NS(=O)(=O)c1ccc(-n2nc3c(c2-c2cccs2)Cc2ccccc2-3)cc1`, the GI50 in the test with LOX IMVI was 5.66 µM; in the test with Hs-578T, 37.5 µM; with PC-3, 14.5 µM; in the test with TK-10, 17.5 µM; with SN12C, 21.5 µM; with ACHN, 17.3 µM. The GI50 in [1] came out at 20.4 µM; in the test on OVCAR-3 it was 24.5 µM; in the test on SK-MEL-5 it was 18.7 µM; with SK-MEL-2 it was 23.6 µM; in test [2], 41.7 µM; in test [3], 49.5 µM. The GI50 with BT-549 was 33.7 µM; in the test on SNB-19, 56.8 µM; in the test on SF-539, 27.6 µM; in the test on SF-268 it was over 100 µM; in the test on HCT-116, 31.6 µM; in test [4], 37.9 µM. Also, the concentration for 50% growth inhibition (GI50) worked out at 21.3 µM in the test with NCI-H226, 10.7 µM in the test on RPMI-8226 and 10 µM in the test with K562. For the same compound, the total growth inhibition concentration (TGI) in test [2] is 94.2 µM; in [3] it was 93.6 µM.

`O=C(Nc1ccccc1)NS(=O)(=O)c1ccc(-n2nc3c(c2-c2cccs2)Cc2ccccc2-3)cc1`: the 50% growth inhibitory concentration (GI50) with LOX IMVI came out at 12 µM; with Hs-578T, 16.8 µM; with PC-3 it was 10.4 µM; in the test on TK-10 it was 4.99 µM; in the test with SN12C, 19.9 µM; in the test with ACHN, 17.6 µM. Moreover, the GI50 in [1] is 16.1 µM; in the test on OVCAR-3, 21.8 µM; with SK-MEL-5 it was 15.6 µM; with SK-MEL-2, 70.1 µM; in [2], 20.8 µM; in [3], 44.4 µM. In addition, the GI50 in the test on BT-549 is 24.1 µM; in the test with SNB-19 it was over 100 µM; in the test on SF-539, 25 µM; in the test with SF-268 it was 26 µM; in the test with HCT-116, 9.13 µM; in [4] it was 4.5 µM. Further, the 50% growth inhibitory concentration (GI50) in the test with NCI-H226 came to 19.2 µM; in the test with RPMI-8226 it was 5.49 µM; in the test on K562 it was 14 µM. For the same compound, the TGI in test [2] was 56.5 µM; in test [3] it was 80.7 µM.
